Test results from PMC8684776, “Discovery and characterization of potent And‐1 inhibitors for cancer treatment” (Clinical and Translational Medicine, 2021).

What was measured:
IGROV1 cells [1] = assay: Flow cytometry cell cycle analysis (propidium iodide); type: cell-based, human; conditions: 1 µM, FACS
From the text: And‐1 is involved in DNA replication in the S‐phase and is required for the S‐phase progression.[15] We assumed that And‐1 inhibitors should be able to inhibit DNA replication by targeting And‐1.
(§1) Supplementary Figure S1. Identification of novel And-1 inhibitors. […]
Molecular weight of each compound was indicated. (C) Flow cytometry

And‐1 = molecular target: T1, And‐1 (Homo sapiens, UniProt O75717); assay: Cellular thermal shift assay; type: binding; conditions: IGROV1 cells, higher temperature, compared to DMSO
T1 construct: expressed in transfected cells
T1 sequence (O75717 1-1129): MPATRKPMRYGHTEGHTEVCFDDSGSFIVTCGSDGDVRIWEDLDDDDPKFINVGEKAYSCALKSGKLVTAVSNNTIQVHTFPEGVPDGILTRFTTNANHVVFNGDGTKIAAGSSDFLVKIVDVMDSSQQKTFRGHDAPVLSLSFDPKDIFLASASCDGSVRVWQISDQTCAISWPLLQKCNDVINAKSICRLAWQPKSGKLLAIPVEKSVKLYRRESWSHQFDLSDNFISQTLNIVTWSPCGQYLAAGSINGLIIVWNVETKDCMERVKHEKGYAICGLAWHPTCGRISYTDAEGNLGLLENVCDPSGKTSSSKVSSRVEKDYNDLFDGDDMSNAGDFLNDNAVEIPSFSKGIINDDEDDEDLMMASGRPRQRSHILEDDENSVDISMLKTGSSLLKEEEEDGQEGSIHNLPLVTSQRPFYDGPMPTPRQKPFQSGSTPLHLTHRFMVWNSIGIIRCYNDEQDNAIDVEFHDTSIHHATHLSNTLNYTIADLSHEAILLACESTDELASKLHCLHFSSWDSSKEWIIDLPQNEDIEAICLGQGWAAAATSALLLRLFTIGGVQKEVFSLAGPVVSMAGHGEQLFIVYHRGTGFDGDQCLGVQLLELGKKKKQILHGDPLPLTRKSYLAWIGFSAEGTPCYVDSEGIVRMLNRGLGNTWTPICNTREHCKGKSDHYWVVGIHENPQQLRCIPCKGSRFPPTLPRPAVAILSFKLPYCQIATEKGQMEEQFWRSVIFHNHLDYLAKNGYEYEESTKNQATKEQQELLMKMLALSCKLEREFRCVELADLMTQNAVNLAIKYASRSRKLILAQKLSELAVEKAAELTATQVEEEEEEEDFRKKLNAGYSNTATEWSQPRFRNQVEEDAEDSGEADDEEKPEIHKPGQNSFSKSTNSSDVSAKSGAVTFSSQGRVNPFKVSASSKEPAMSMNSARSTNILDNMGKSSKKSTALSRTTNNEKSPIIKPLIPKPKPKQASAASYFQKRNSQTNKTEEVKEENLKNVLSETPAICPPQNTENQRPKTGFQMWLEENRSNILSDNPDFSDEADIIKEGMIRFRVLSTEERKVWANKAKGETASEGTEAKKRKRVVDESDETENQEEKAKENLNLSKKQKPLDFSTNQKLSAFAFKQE

[2] = Toxicity evaluation of treated mice (body weight, H&E staining of organs)
Experimental: To this end, we subcutaneously implanted IGROV1 or MCF7 cells into nude mice to form ovarian or breast tumors, respectively. The mice with these tumors were then treated with vehicle, 20 mg/kg or 40 mg/kg of CH3 via intraperitoneal injection.
To assess the efficacy of the combination of And‐1 inhibitors and cisplatin in vivo, we treated cisplatin resistant IGROV1 CR xenografts with vehicle, And‐1 inhibitors, cisplatin or a combination of cisplatin and And‐1 inhibitor via intraperitoneal injection.
week old female BALB/c athymic nude mice (CByJ.Cg-Foxn1nu/J, weighting 20-25g, from the Jackson
Laboratory) were inoculated subcutaneously by injecting the OC cells, cisplatin resistant OC cells or
breast cancer cells suspended in 100 µl ice-cold Matrigel/PBS (1:1, V:V; 5 x 10^6/mouse) into the dorsal
flank of each mouse. When the average tumor volume reached 100-150 mm3, the mice were randomized
into subsequent experiment groups. For tumors treated with CH3 only, CH3 was given at 0 mg/kg, 20
mg/kg and 40 mg/kg twice a week for three weeks.
were then given intraperitoneally at 8 mg/kg, 20 mg/kg and 2 mg/kg respectively twice a week for three
During the drug treatment, the tumor volume and body weight were measured.

IGROV1 CR cells = assay: SRB cell viability assay, combination with cisplatin; type: cell-based, human; conditions: by combination index (CI < 1 synergism)
Experimental: The assay was as previously described.[45]
Synergy of each combination was indicated as combination index (CI) values. […] (C) Tumors of IGROV1 CR xenograft treated with control (vehicle), cisplatin (8 mg/kg/day intraperitoneally), CH3 (20 mg/kg/3days intraperitoneally), or a combination of CH3 and cisplatin for 3 weeks. Ruler scale is in centimeters. (D) Growth curves of IGROV1 CR xenografts. […] (E) IHC staining against And‐1 antibodies of tumor samples from four treated groups of mice. Scale bar: 50 μm. […] Ruler scale is in centimeters. (G) Growth curves of IGROV1 CR xenografts. […] (H) IHC staining against And‐1 antibodies of tumor samples from four treated groups of mice. Scale bar: 50 μm.

IGROV1 cells [3] = assay: Immunofluorescence of CtIP recruitment to micro-irradiation induced DSB sites; type: cell-based, human; conditions: 1 µM
Experimental: as §1
siAnd-1. S: S phase. (D) Immunofluorescence assay to detect CtIP and γH2AX foci formation after CH3 […]
IGROV1 cells treated with DMSO, 1 […]
to immunostain γH2AX and CtIP. For each experiment, 50 cells were counted and the percentage of cells with co-localization of γH2AX and CtIP foci was determined. Data represent means ± SEM from three independent experiments. (E) HR reporter assay to detect HR repair efficiency in cells treated with CH3. […]

IGROV1 xenografts = assay: IGROV1 xenograft in nude mice; type: in vivo, mouse
Experimental: (A) Tumours of IGROV1 xenograft treated with vehicle or CH3 (20 or 40 mg/kg/3days intraperitoneally) for 3 weeks. Ruler scale is in centimeters. (B) Growth curves of IGROV1 xenografts. Data are represented as means ± SEM. ****p < 0.0001. (C) IHC staining against acidic nucleoplasmic DNA‐binding protein 1 (And‐1) and cleaved‐caspase3 antibodies of tumor samples from 3 groups of mice. Scale bar: 50 μm. Lower panel, quantification of And‐1and cleaved‐caspase 3 IHC score in tumors treated in A. ****p < 0.0001. (D) Tumors of MCF7 xenograft treated with vehicle or CH3 (20 or 40 mg/kg/3days intraperitoneally) for 3 weeks. Ruler scale is in centimeters. (E) Growth curves of MCF7 xenografts. Data are represented as means ± SEM. ****p < 0.0001. (F) IHC staining against And‐1 and cleaved‐caspase3 antibodies of tumor samples from three treated groups of mice. Scale bar: 50 μm. Lower panel, quantification of And‐1and cleaved‐caspase 3 IHC score in tumors treated in (D). *p < 0.1; **p < 0.01; ***p < 0.001; ****p < 0.0001
into subsequent experiment groups.
represent the longest and shortest diameters, respectively. During the drug treatment, the tumor volume
and body weight were measured. […]

With `OB1OCc2cc(/C=C/c3ccc(Cl)c(Cl)c3)ccc21` [CH3, (E)‐5‐(3,4‐dichlorostyryl)benzo[c][1,2]oxaborol‐1(3H)‐ol] the “percentage of cells in the S‐phase” value (IGROV1 cells [1]) was “reduced the percentage of cells in the S‐phase”, the “thermal stability of And‐1 protein” value (And‐1) was “stabilized” and the “toxicity of combination with cisplatin: body weight and organs (heart, liver, kidney, lung)” value ([2]; IGROV1 CR xenograft mice, cisplatin 8 mg/kg + CH3 20 mg/kg or BZA 2 mg/kg) was “no obvious systemic toxicity or side effect”. The “toxicity: body weight; H&E staining of heart, liver, kidney and lung” value ([2]; xenograft mice, CH3 20 or 40 mg/kg intraperitoneal) was “did not observe systemic toxicity or obvious side effects”, the “synergy with cisplatin to inhibit cell proliferation” value (IGROV1 CR cells) was “significant synergy with cisplatin” and the “recruitment of CtIP to DSB sites induced by micro‐irradiation” value (IGROV1 cells [3]) was “significantly decreased”. The “And‐1 expression in tumor tissues (IHC)” value (IGROV1 xenografts; IGROV1 xenograft tumors) was “inhibited And‐1 expression”, the “cleaved caspase‐3 expression in tumor tissues (IHC)” value (IGROV1 xenografts; IGROV1 xenograft tumors) was “induced the expression of cleaved caspase‐3” and the tumor growth (IGROV1 xenografts; ovarian IGROV1 xenografts, nude mice, 20 mg/kg or 40 mg/kg intraperitoneal, 3 weeks) was “significantly reduced tumor growth”.
